These results are taken from patent US7862995B2, “Methods and materials for predicting responsiveness to treatment with dual tyrosine kinase inhibitor” (Targeted Molecular Diagnostics, priority 2004, dated 2011).

Each structure is given as a SMILES string. Entries after “also recorded” stand apart in the source; their conditions may differ.

Data set [1] deals with AU-565 breast cancer cells. The data set can be described thus: Viability of AU-565 and Bcl-2-transfected AU-565 cells after GW2974 treatment. In kind it is cell-based. An excerpt:
Au-565 breast cancer cells were obtained from the American Tissue Culture Collection, (deposit # CRL-2351) (Manassas, Va.) and were transfected with a Bcl-2 cDNA to express high levels of Bcl-2. Methods of transfecting cells are well known in the art and any known methods may be used in this example. Transfected Au-565 cells were then exposed to GW2974 (Sigma-Aldrich, St. Louis, Mo.), a dual EGFR/HER2 tyrosine kinase inhibitor.

Data set [2] relates to BT474 breast tumor cells. The data set can be described thus: Cell death in estrogen-stimulated BT474 cells, methylene blue staining. In kind it is cell-based, human. As to conditions: 1 μM estrogen 24 hr, 5 μM GW2974 90 min, 10 μM tamoxifen 72 hr. The procedure: Exponentially growing BT474 cells were treated with 1 μM estrogen for 24 hr. After 24 hr the cells were either untreated or treated with 5 μM small molecule dual inhibitor of EGFR/erbB2 (Sigma, GW2974) for 90 min. After 90 min, the cells were either untreated or treated with 10 μM tamoxifen for 72 hr. Cells were then washed with 1×PBS, stained with methylene blue (1% methylene blue in 50% methanol), rinsed with water, and dried overnight.

The subject of data set [3] is ER (and PR) expression in breast cancer cells. The data set can be described thus: ER (and PR) expression in breast cancer cells. In kind it is cell-based.
Data set [4] relates to pAkt, pErk1 and pErk2 in MCF-7+HER2 cells. The data set can be described thus: Western blot of MCF-7+HER2 cells for pErk1/Erk2/pAkt. In kind it is cell-based. In general terms: A western blot detects proteins with antibodies after separation by electrophoresis.
The subject of data set [5] is ER in MCF-7(HER2) cells. The data set can be described thus: ER localization by immunofluorescence in MCF-7(HER2) cells. In kind it is cell-based. Particulars: 1 mM GW2974 for 4 days. An excerpt:
Nuclei are stained with DAPI and ER is detected by an immunofluorescent antibody

Data set [6] deals with breast, gastric, and head/neck carcinoma cell lines compared to normal human foreskin fibroblasts (HFF). As to conditions: cited from earlier work.
In data set [7] the test system is forkhead transcription factor 3 (FOXO3A) in AU-565 breast cancer cells. The data set can be described thus: FOXO3A staining of AU-565 breast cancer cells. In kind it is cell-based.
Data set [8] relates to FOXO3. The data set can be described thus: ELISA gel for FOXO3. As to conditions: following treatment. On the technique in general: ELISA stands for enzyme-linked immunosorbent assay.
Data set [9] has as its system invasive breast carcinoma. The data set can be described thus: TUNEL staining of PCD in patient tumor samples. In kind it is in vivo, human.
Experimental: All TUNEL solutions and staining reagents used in the present invention were purchased from Roche. Paraffin-embedded tissue clinical samples were dewaxed and rehydrated by heating at 60° C. followed by washing in xylene and rehydration through a graded series of washes with ethanol and double distilled water. Samples were incubated for 15-30 min at 21-37° C. with Proteinase K. Slides were rinsed twice with PBS. The area around the sample was dried and 50 μl of TUNEL reaction mixture was added to each slide. A coverslip was added to each slide and incubated for 60 min at 37° C. in a humidified chamber in the dark. The slides were rinsed three times with PBS. The TUNEL signal was converted by first drying the area around the sample and then adding 50 μl of Converter-POD reagent. The slides were incubated in a humidified chamber for 30 min at 37° C. and then rinsed three times in PBS. 100 μl of DAB Substrate was added to each slide and incubated for 10 min at 15-25° C. The slides were then rinsed three times with PBS. Slides were mounted under glass coverslips and TUNEL staining was analyzed under a light microscope.
Data set [10] is described as follows: Clinical response of a subject treated with a small molecule dual inhibitor of EGFR/erbB2. In kind it is in vivo, human. As to conditions: one subject.
The subject of data set [11] is ER in breast cancer tissues. The data set can be described thus: IHC of ER in breast cancer tissues after treatment. In kind it is in vivo.

Regarding `CN(C)c1cc2c(Nc3ccc4c(cnn4Cc4ccccc4)c3)ncnc2cn1` [GW2974], the viable cells entry in data set [1] (AU-565/Bcl-2 cells (overexpressing Bcl-2) treated by GW2974) is “approximately 50%”; in data set [1] (AU-565 cells treated by GW2974), ~20%. Moreover, the “higher rate of cell survival in cells with high Bcl-2 expression” value in data set [1] (following treatment with GW2974) is “approximately 30%”. For the same compound, the cell death result in [2] is “increases cell death in the presence of tamoxifen”. Further, the “ER (and PR) expression” value in data set [3] is “upregulates ER (and PR) expression”. Besides, the “effectiveness in cells pre-treated with estrogen” value in data set [4] (MCF-7+HER2 cells pre-treated with estrogen, then GW2974) is given as “not effective”. Besides, the pAkt expression entry in data set [4] (MCF-7+HER2 cells treated with GW2974) is listed as “not expressed; also recorded: greatly reduced”. Also, in [4] (MCF-7+HER2 cells treated with GW2974, relative to baseline control (actin)), the “expression of pErk1 and pErk2” value is given as “decreased”. Moreover, the ER localization entry in data set [5] is given as “accumulation of the ER in the cellular nucleus”. For the same compound, the “selectivity in inhibiting cell growth” value in data set [6] is reported as “greater than 75 fold”.
As to `CS(=O)(=O)CCNCc1ccc(-c2ccc3ncnc(Nc4ccc(OCc5cccc(F)c5)c(Cl)c4)c3c2)o1` [lapatinib], the FOXO3A expression entry in [7] is given as “upregulated; also recorded: upregulates FOXO3A”. Besides, in [8], the FOXO3 expression result is listed as “upregulation of FOXO3”. Further, the “response of TUNEL-positive patient to treatment” value in data set [9] (patient with invasive breast carcinoma (IBC) positive for TUNEL staining) is “responded well”. The “levels of PCD by TUNEL staining” value in data set [9] (patient with invasive breast carcinoma, 21 days after treatment) is listed as “significantly increased levels of PCD”. Also, the clinical response entry in data set [10] is “complete response”. Further, the “duration of response / disease free state” value in data set [10] (following treatment) is reported as “at least 20 months”. The ER localization result in [11] is on record as “change in ER localization”.
